Experiment [1] has as its target T1, bombesin receptor (Mus musculus, UniProt P21729).
T1 construct: from tissue
In words: Phosphatidylinositol (PI) turnover in chopped mouse pancreas. Type of experiment: cell-based. As for the experimental part: (§1) Pept. […] Pept 32: 241-251, 1991.
Pancrea from mice were chopped at 350 μm with a tissue chopper and pooled in Krebs-Hepes buffer [118 mM NaCl, 1.2 mM K2 PO4, 4.7 mM KCl, 1.2 mM MgSO4, 1.0 mM CaCl2, 11.7 mM glucose, 20 mM Hepes (pH 7.4)]. The chopped tissue was washed once with oxygenated Krebs-Hepes,then incubated for 30 minutes in 37° C. oxygenated Krebs-Hepes buffer with fresh buffer after 15 minutes. The tissue was then incubated in this buffer containing 200 μCi of [^3 H]inositot at 37° C. for 1 hour. The tissue was then washed twice and incubated for another 30 minutes in oxygenated Krebs-Hepes (containing 10 mM Li+) at 37° C. and with fresh buffer change after 15 minutes. Portions of the tissue mass (approximately 10 mg per assay tube) were then placed in Li+ buffer with protease inhibitors (40 μg/ml bacitracin, 4 μg/ml leupeptin, 4 μg/ml chymostatin, 0.8 μg/ml thiorphan), 0.1% BSA, and 0.1-1000 μM peptide. After 60 minutes at room temperature, the phosphatidylinositol turnover was terminated by the addition of 940 μl chloroform:methanol (1:2), followed by 310 μl chloroform, followed by 310 μl water. Each tube was then vortexed three times for 5 seconds each time and then centrifuged at […] for 8 minutes to separate the phases. 50 μl of the bottom phase (chloroform) was withdrawn from each tube and placed in a counting vial, dried, and counted in scintillation fluid. 900 μl of the top (aqueous) phase was then mixed with 2.1 ml water and loaded onto a 0.5 ml Biorad AG-1×8 (formate) ion exchange column. The material on the columns was washed in order with: 1) 10 ml of water 2) 5 ml of […] disodium tetraborate/60 mM sodium formate 3) 10 ml of 1M ammonium formate in 0.1M formic acid. The final (third) wash was collected and one ml was mixed with 14 ml of Bio-Safe or E-Colume scintillant and counted. The ratio of these counts (total inositol phosphates) to the corresponding organic phase counts (inositol incorporated into the tissue) was then calculated for each sample. The ratios in the presence of test compound and/or standards were then compared to the ratios for control tubes (i.e., no stimulating agonist). The abilities of test compounds to stimulate phosphatidylinositol turnover were determined with the aid of a computer program.

Experiment [2] has as its system cell surface receptors that bind bombesin. The following applies: background section; read-out: KD of high-affinity cell surface receptors that bind bombesin; cited from earlier work.
Experiment [3] concerns the target T1, bombesin receptor. Description: Competitive binding of 125I-GRP to the bombesin receptor in mouse pancreas membranes. The method, then:
as §1
The pancreas from one or more mice were pooled and homogenized in 50 mM HEPES (pH 7.4) containing 120 mM NaCl, 5 mM KCl, and protease inhibitors (1 μg/ml aprotinin, leupeptin, pepstatin; 4 μg/ml bacitracin, antipain, bestatin; 100 μM PMSF; 1 mM EDTA) at 4° C. and centrifuged at 37,500 × g for 15 minutes. The pellet was resuspended in 50 mM HEPES (pH 7.4) containing 10 mM EDTA, 300 mM KCl, and protease inhibitors, and then incubated for 30 minutes at 4° C. The suspension was centrifuged as above and the pellet was washed two times in 50 mM HEPES (pH 7.4) containing 0.8 μg/ml thiorphan and protease inhibitors, and again centrifuged. The tissue was then resuspended in incubation buffer (1 ml per 4 mg pancreas) and incubated for 15 minutes at room temperature, then 250 μl were added to each assay tube to commence the assay. The assay tubes contained incubation buffer consisting of 50 mM HEPES (pH 7.4), 0.5% BSA, protease inhibitors, 2 mM MnCl2, 0.8 μg/ml thiorphan, 1 μM somatostatin, and concentrations of ^125 I-GRP and peptides as needed in a final volume of 500 μl. The assay was allowed to proceed to equilibrium for 90 minutes at room temperature. After this time, the contents of each tube were rapidly filtered over Whatman GF/B filters presoaked in 0.1% polyethyleneimine and the tubes and filters were rapidly washed three times with ice-cold 50 mM HEPES (pH 7.4). Filter-bound radioactivity was quantitated in a gamma counter. Competition of iodinated GRP binding by test compounds or standards was expressed as a percentage of ^125 I-GRP binding in the absence of peptide. Affinity and maximal binding were calculated with LIGAND (Biosoft, Cambridge, UK).

Read-outs that look alike come from different tables or passages of the source. *1 amine or outer side, *2 acyl side, *3 side chain or, on linkers, in order; H or OH if unused. Where a SMILES comes first, the peptide text is derived from it. [ ]: non-standard residue; d: D form. The star is where a group is joined. X2 = CC(C)C[C@@H](C(N)=O)S(=O)(=O)C[C@H](Cc1ccccc1)N*; X1 = CN(/C(=C\c1ccccc1)C(=O)[*:2])[*:1]; pGlu = O=C1CC[C@@H](C(=O)O)N1

T1 sequence (P21729 whole entry): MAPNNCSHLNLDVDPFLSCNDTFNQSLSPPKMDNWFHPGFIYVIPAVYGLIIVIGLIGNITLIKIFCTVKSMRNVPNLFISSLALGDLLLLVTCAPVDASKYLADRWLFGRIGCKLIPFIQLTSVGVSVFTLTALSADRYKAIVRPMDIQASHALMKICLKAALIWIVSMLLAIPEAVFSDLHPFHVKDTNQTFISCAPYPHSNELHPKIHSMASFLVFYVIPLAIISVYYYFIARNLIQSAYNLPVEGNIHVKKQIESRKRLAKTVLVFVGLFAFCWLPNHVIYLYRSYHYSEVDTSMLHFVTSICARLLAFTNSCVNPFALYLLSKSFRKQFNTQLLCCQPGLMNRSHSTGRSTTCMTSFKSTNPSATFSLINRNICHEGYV

The term Kd denotes the constant that tells how readily two partners part at equilibrium. With `CSCC[C@H](NC(=O)[C@H](CC(C)C)NC(=O)[C@H](Cc1cnc[nH]1)NC(=O)CNC(=O)[C@@H](NC(=O)[C@H](C)NC(=O)[C@H](Cc1c[nH]c2ccccc12)NC(=O)[C@H](CCC(N)=O)NC(=O)[C@H](CC(N)=O)NC(=O)CNC(=O)[C@H](CC(C)C)NC(=O)[C@H](CCCN=C(N)N)NC(=O)[C@H](CCC(N)=O)NC(=O)[C@@H]1CCC(=O)N1)C(C)C)C(N)=O` [Analog II, Bombesin], in experiment [1], the Agonist entry is “+” and the Antagonist entry is on record as “-”. Further, in experiment [2], the Kd is 1 nM.

Consider `CSCC[C@H](NC(=O)[C@H](Cc1ccccc1)NC(=O)[C@H](Cc1c[nH]cn1)NC(=O)CNC(=O)[C@@H](NC(=O)[C@H](C)NC(=O)[C@H](Cc1c[nH]c2ccccc12)NC(=O)[C@H](CCC(N)=O)NC(=O)[C@@H]1CCC(=O)N1)C(C)C)C(N)=O` [Analog III, Litorin], for which, in experiment [1], the Agonist entry is recorded as “+” and the Antagonist result is recorded as “-”.

For `COC(=O)/C(=C/c1ccccc1)NC(=O)[C@H](CC(C)C)NC(=O)[C@H](Cc1c[nH]cn1)NC(=O)CNC(=O)[C@@H](NC(=O)[C@H](C)NC(=O)[C@H](Cc1c[nH]c2ccccc12)NC(=O)[C@H](CCC(N)=O)NC(=O)[C@@H](Cc1ccccc1)NC(C)=O)C(C)C` [Analog IV, (Ac-D-Phe^1,Leu^8,Δ^Z Phe9)litorin-OMe], binding in experiment [3] was characterised by a dissociation constant (Kd) of 1.18 nM.

Consider `CC(C)C[C@@H](C(N)=O)S(=O)(=O)C[C@H](Cc1ccccc1)NC(=O)[C@H](Cc1c[nH]cn1)NC(=O)CNC(=O)[C@@H](NC(=O)[C@H](C)NC(=O)[C@H](Cc1c[nH]c2ccccc12)NC(=O)[C@H](CCC(N)=O)NC(=O)[C@@H]1CCC(=O)N1)C(C)C` [Analog IX, (Phe^8 .PSI.[CH2 SO2]Leu^9 litorin] ([pGlu]QWAVGH-X2; C-terminus assumed), for which, in experiment [1], the Antagonist stood at 30. Besides, the “Agonist/antagonist character in words” value in experiment [1] (text under Table 1) is listed as “antagonist”. This compound also returned a Kd in experiment [3] of 9.9 nM.

With `COC(=O)/C(=C\c1ccccc1)NC(=O)[C@H](CC(C)C)NC(=O)[C@H](Cc1c[nH]cn1)NC(=O)CNC(=O)[C@@H](NC(=O)[C@H](C)NC(=O)[C@H](Cc1c[nH]c2ccccc12)NC(=O)[C@H](CCC(N)=O)NC(=O)[C@@H](Cc1ccccc1)NC(C)=O)C(C)C` [Analog VII, (Ac-D-Phe^1,Leu^8,Δ^E Phe^9)litorin-OMe], the Kd in experiment [3] came to 18.6 nM.

On to `COC(=O)/C(=C/c1ccccc1)N(C)C(=O)[C@H](CC(C)C)NC(=O)[C@H](Cc1c[nH]cn1)NC(=O)[C@@H](C)NC(=O)[C@@H](NC(=O)[C@H](C)NC(=O)[C@H](Cc1c[nH]c2ccccc12)NC(=O)[C@H](CCC(N)=O)NC(=O)[C@@H](Cc1ccccc1)NC(C)=O)C(C)C` [Analog VIII, (Ac-D-Phe^1,D-Ala^6,Leu^8,N(Me)Δ^Z Phe^9) litorin-OMe] (Ac-[dF]QWAV[dA]HL[X1]-OMe), for which the Kd in experiment [3] (competitive binding vs 125I-GRP, mouse pancreas, read-out: Kd) came out at 65.3 nM.
